# Reference: US20050238581A1, “Dynamic hepatic recycling glucose tolerance test” (priority 2002, published 2005)
# Columns and labels:
# [1] = [1, 2-^13C2]-glucose HR-GTT in C57BL/6 and PPARα KO mice; format: in vivo, C57BL/6 mice and PPARα KO mice; settings: for glucose recycling rate constant (kHR), slope of M1/M2 ratio against time: regression analysis
# Method: Wild-type (C57BL/6) mice and PPARα KO mice were obtained. In this example, glucose was labeled with either stable isotopes of [1, 2-^13C2]-glucose, or [2-^2H]- and [6, 6-^2H2]-glucose and all isotopes were 99% enriched. The [1, 2-^13C2]-glucose, or a 1:1 mixture of [2-^2H]- and [6, 6-^2H2]-glucose, was then administered at 1 mg glucose/gm body weight by intraperitoneal injection. Blood was sampled at 0, 0.5, 1, 2, and 3 hours for [1, 2-^13C2]-glucose isotopomer analysis, and 0.5, 1 and 2 hours for deuterated glucose isotopomer analysis. Plasma glucose and lactate concentrations were determined by the use of a COBAS MIRA analyzer. All isotopomeric determinations were performed on a Hewlett Packard Mass Selective Detector (model 5973A) connected to an HP Gas Chromatograph (model 6890) using chemical ionization (CI) with 20% methane. The re-cycling of hepatic glucose, leading to the appearance of M1 glucose in blood, occurs when the glucose traverses the glucose<->G-6-P, pentose phosphate pathway, and possibly the TCA cycle. […] The slope of the increase in this ratio gives the in vivo glucose dependent futile re-cycling rate constant of glucose through G-6-P.
# [2] = intraperitoneal hepatic recycling glucose tolerance test (HRGTT) with [1, 2-^13C2]-glucose load; format: in vivo, C57BL6 mice; settings: for decrease in total amount of M2 glucose: compared to amount appearing in plasma between 0-60 minutes
# Method: Stable isotopes of the M2 isotopomer glucose was administered at 1 mg glucose/gm body weight by intraperitoneal injection. Animals were euthanized by an overdose of isoflurane anesthesia, and tissue from liver and skeletal muscle were rapidly dissected free, snap-frozen in liquid nitrogen, and stored at −80° C. until processed for isolation of RNA or glycogen. Cytosolic protein was extracted from the liver tissue after homogenization with 10 strikes in lysis buffer containing 0.25 M sucrose, I OmM Tris-HCL(pH7.4), 3 mM MgCL2, 0.1 mM PMSF, 20 mM NaF, 1 mM Na3VO4, 1 MM Na4P207, 1 μg/ml of leupeptin/aprotinin/pepstatin. The resulting cell lysate was filtered with 4 layers of cheesecloth. Nuclei were pelleted by centrifugation at 1000 g for 10 min. Mitochondria were precipitated by centrifugation at 15,000 g for 20 min from the supernatant. The cytosolic fraction was isolated as the supernatant obtained from last ultra-centrifugation at 100,000 g at 4° C. for 1 hr. Protein concentration from cytosol were measured by using an absorbance at 595 run (BCA kit from Pierce). 60 1 μg of protein extracts from cytosol were separated by 10% SDS-PAGE. The membrane blots were incubated with anti-GK at 1:2500 (v/v), anti-G6PDH at 1:2000 (v/v), anti-PEPCK at 1:500 (v/v), and anti-p-actin at 1:2000 (v/v), for either 1 hr in western washing buffer at RT or overnight at 4 C after blocking. The blots were hybridized with secondary antibodies coupled to horseradish peroxidase for 40 to 60 min at RT. Immunodetection was accomplished using enhanced chemiluminescence. Density of each band was determined by scanning the exposed film. The time course of glucose and lactate isotopomers in plasma, and glucose isotopomers in liver glycogen was determined using gas chromatography/mass spectrometry. The M1 glucose isotopomer, in which ^13C glucose can occupy the carbon 1 position, was produced via the action of the oxidative limb of the pentose phosphate pathway (PPP) on the administered M2 glucose isotopomer, and its re-entry into the gluconeogenic pathway via the non-oxidative limb of the PPP. The absorption of administered glucose was monitored by the time course of M2 isotopomer, and hepatic glucose recycling by the time course of M1 isotopomer of glucose.
structure (smiles),measurement,setting,value
"OC[C@H]1OC(O)[C@H](O)[C@@H](O)[C@@H]1O (stereo partly shown) [[1,2-^13C2]-glucose]","glucose recycling rate constant (kHR), slope of M1/M2 ratio against time",[1]; C57BL/6 mice,0.1086 ± 0.0049 per hour
same,"glucose recycling rate constant (kHR), slope of M1/M2 ratio against time","[1]; PPARα KO mice, p<0.025 vs C57BL/6",0.0790 ± 0.0064 per hour
same,"fall in plasma M2 levels, faster in PPARα KO than in C57BL/6 (overall glucose clearance)","[1]; between 0.5 hours and 3.0 hours, p<0.001",32%
same,decrease in total amount of M2 glucose,[2]; 60-120 minutes,30%
same,decrease in total amount of M2 glucose,[2]; 120-180 minutes,65%
same,plasma M2 enrichment after steady decline,"[2]; after the first 60 minutes, ip 1 mg/gm",20.1±1.3%
same,"enrichment of [1, 2-^13C2]-glucose (M2) in the plasma glucose pool",[2]; enrichment rapidly achieved after ip injection of 1 mg/gm body weight,55±1.0%
same,contribution of direct pathway from glucose uptake to glycogen glucose deposited,[2]; glucose load 1 mg glucose/g body weight,less than 5%
same,"M2 isotopomer enrichment in liver glycogen glucose, start of decrease","[2]; liver glycogen, earlier time (2 hours)",1.9%
same,"M2 isotopomer enrichment in liver glycogen glucose, end of decrease","[2]; liver glycogen, later time (3 hours)",0.8%
